According to the NIST ThermoML archive (doi:10.1021/acs.jced.5b01000):
Numbers after ± are expanded uncertainties.

What was measured:
[1] = xn = mol fraction of the nth substance listed; conditions: 99 kPa, Liquid; for viscosity: Capillary tube (Ostwald / Ubbelohde) method; for speed of sound: Frequency=3 MHz, Sing-around technique in a fixed-path interferometer; for mass density: Vibrating tube method
[2] = refractive index (Na D-line) (dimensionless); xn = mol fraction of the nth substance listed; conditions: 99 kPa, Liquid, Standard Abbe refractometry

CC(=O)N(C)C [N,N-dimethylethanamide] + CCO
Conditions | mass density, [1] [kg/m3] | refractive index, [2] | speed of sound, [1] [m/s] | viscosity, [1] [mPa·s]
283.15 K, x1 = 0.0524 | 811.441 ± 0.2 | 1.37246 ± 0.00035 | 1225.3 ± 1.2 | 1.369 ± 0.016
283.15 K, x1 = 0.1071 | 824.492 ± 0.2 | 1.37916 ± 0.00035 | 1254.6 ± 1.2 | 1.306 ± 0.015
283.15 K, x1 = 0.2064 | 845.481 ± 0.2 | 1.39001 ± 0.00035 | 1298 ± 1.2 | 1.229 ± 0.014
283.15 K, x1 = 0.3022 | 863.302 ± 0.2 | 1.39925 ± 0.00035 | 1334.9 ± 1.2 | 1.187 ± 0.014
283.15 K, x1 = 0.4057 | 880.337 ± 0.2 | 1.40801 ± 0.00035 | 1369.6 ± 1.2 | 1.166 ± 0.013
283.15 K, x1 = 0.5032 | 894.71 ± 0.2 | 1.41538 ± 0.00035 | 1399.5 ± 1.2 | 1.161 ± 0.013
283.15 K, x1 = 0.6016 | 907.87 ± 0.2 | 1.42196 ± 0.00036 | 1427.3 ± 1.2 | 1.16 ± 0.013
283.15 K, x1 = 0.7065 | 920.678 ± 0.2 | 1.42823 ± 0.00036 | 1454 ± 1.3 | 1.164 ± 0.013
283.15 K, x1 = 0.8013 | 931.158 ± 0.21 | 1.43325 ± 0.00036 | 1476.5 ± 1.3 | 1.17 ± 0.014
283.15 K, x1 = 0.9021 | 941.312 ± 0.21 | 1.43826 ± 0.00036 | 1498.3 ± 1.3 | 1.172 ± 0.014
283.15 K, x1 = 0.9529 | 946.061 ± 0.21 | 1.44059 ± 0.00036 | 1508.5 ± 1.3 | 1.169 ± 0.014
283.15 K, x1 = 1 | 950.131 ± 0.21 | 1.44273 ± 0.00036 | 1516.8 ± 1.3 | 1.168 ± 0.014
298.15 K, x1 = 0.0524 | 798.435 ± 0.2 | 1.36619 ± 0.00035 | 1172.1 ± 1.2 | 1.038 ± 0.012
298.15 K, x1 = 0.1071 | 811.331 ± 0.2 | 1.37281 ± 0.00035 | 1199.9 ± 1.2 | 1.003 ± 0.012
298.15 K, x1 = 0.2064 | 832.087 ± 0.2 | 1.38351 ± 0.00035 | 1242.5 ± 1.2 | 0.9558 ± 0.011
298.15 K, x1 = 0.3022 | 849.767 ± 0.2 | 1.39264 ± 0.00035 | 1277.4 ± 1.2 | 0.9319 ± 0.011
298.15 K, x1 = 0.4057 | 866.689 ± 0.2 | 1.40131 ± 0.00035 | 1312.1 ± 1.2 | 0.9212 ± 0.011
298.15 K, x1 = 0.5032 | 881.006 ± 0.2 | 1.40863 ± 0.00035 | 1341 ± 1.2 | 0.9169 ± 0.011
298.15 K, x1 = 0.6016 | 894.141 ± 0.2 | 1.41518 ± 0.00036 | 1367.9 ± 1.2 | 0.921 ± 0.011
298.15 K, x1 = 0.7065 | 906.822 ± 0.2 | 1.42135 ± 0.00036 | 1394.4 ± 1.3 | 0.9259 ± 0.011
298.15 K, x1 = 0.8013 | 917.351 ± 0.2 | 1.4264 ± 0.00036 | 1415.7 ± 1.3 | 0.9311 ± 0.011
298.15 K, x1 = 0.9021 | 927.481 ± 0.21 | 1.43136 ± 0.00036 | 1437.6 ± 1.3 | 0.9309 ± 0.011
298.15 K, x1 = 0.9529 | 932.213 ± 0.21 | 1.43367 ± 0.00036 | 1446.3 ± 1.3 | 0.9307 ± 0.011
298.15 K, x1 = 1 | 936.289 ± 0.21 | 1.43579 ± 0.00036 | 1453.7 ± 1.3 | 0.9299 ± 0.011
313.15 K, x1 = 0.0524 | 785.68 ± 0.2 | 1.35974 ± 0.00035 | 1120.6 ± 1.2 | 0.8029 ± 0.0093
313.15 K, x1 = 0.1071 | 798.43 ± 0.2 | 1.36632 ± 0.00035 | 1147.6 ± 1.2 | 0.7849 ± 0.0091
313.15 K, x1 = 0.2064 | 818.908 ± 0.2 | 1.37691 ± 0.00035 | 1188.7 ± 1.2 | 0.7611 ± 0.0089
313.15 K, x1 = 0.3022 | 836.413 ± 0.2 | 1.38598 ± 0.00035 | 1222.6 ± 1.2 | 0.7493 ± 0.0088
313.15 K, x1 = 0.4057 | 853.186 ± 0.2 | 1.39461 ± 0.00035 | 1256.3 ± 1.2 | 0.7462 ± 0.0087
313.15 K, x1 = 0.5032 | 867.418 ± 0.2 | 1.40189 ± 0.00035 | 1284.2 ± 1.2 | 0.7469 ± 0.0088
313.15 K, x1 = 0.6016 | 880.488 ± 0.2 | 1.40843 ± 0.00036 | 1310.5 ± 1.2 | 0.7516 ± 0.0088
313.15 K, x1 = 0.7065 | 893.143 ± 0.2 | 1.41463 ± 0.00036 | 1336.3 ± 1.2 | 0.7581 ± 0.0089
313.15 K, x1 = 0.8013 | 903.56 ± 0.2 | 1.41962 ± 0.00036 | 1358.5 ± 1.3 | 0.7623 ± 0.009
313.15 K, x1 = 0.9021 | 913.657 ± 0.21 | 1.4246 ± 0.00036 | 1378.5 ± 1.3 | 0.7643 ± 0.009
313.15 K, x1 = 0.9529 | 918.346 ± 0.21 | 1.42688 ± 0.00036 | 1386 ± 1.3 | 0.7651 ± 0.0091
313.15 K, x1 = 1 | 922.429 ± 0.21 | 1.42901 ± 0.00036 | 1393.3 ± 1.3 | 0.7644 ± 0.0091

CC(=O)N(C)C [N,N-dimethylethanamide] + CO
Conditions | mass density, [1] [kg/m3] | refractive index, [2] | speed of sound, [1] [m/s] | viscosity, [1] [mPa·s]
283.15 K, x1 = 0.0602 | 823.325 ± 0.2 | 1.34879 ± 0.00035 | 1204.4 ± 1.2 | 0.7266 ± 0.0085
283.15 K, x1 = 0.1088 | 838.649 ± 0.2 | 1.35969 ± 0.00035 | 1242 ± 1.2 | 0.7638 ± 0.0089
283.15 K, x1 = 0.2079 | 864.147 ± 0.2 | 1.37803 ± 0.00035 | 1305.6 ± 1.2 | 0.831 ± 0.0097
283.15 K, x1 = 0.304 | 883.509 ± 0.2 | 1.39207 ± 0.00035 | 1353.4 ± 1.2 | 0.892 ± 0.01
283.15 K, x1 = 0.4055 | 899.792 ± 0.2 | 1.40414 ± 0.00035 | 1394 ± 1.2 | 0.9491 ± 0.011
283.15 K, x1 = 0.5011 | 912.039 ± 0.2 | 1.41331 ± 0.00035 | 1424.8 ± 1.2 | 0.9971 ± 0.012
283.15 K, x1 = 0.6014 | 922.607 ± 0.2 | 1.42138 ± 0.00036 | 1450.4 ± 1.3 | 1.041 ± 0.012
283.15 K, x1 = 0.7036 | 931.645 ± 0.2 | 1.42811 ± 0.00036 | 1473.1 ± 1.3 | 1.083 ± 0.013
283.15 K, x1 = 0.803 | 938.688 ± 0.21 | 1.43369 ± 0.00036 | 1489.2 ± 1.3 | 1.117 ± 0.013
283.15 K, x1 = 0.9076 | 945.177 ± 0.21 | 1.43878 ± 0.00036 | 1505 ± 1.3 | 1.149 ± 0.013
283.15 K, x1 = 0.9502 | 947.535 ± 0.21 | 1.4407 ± 0.00036 | 1510.7 ± 1.3 | 1.158 ± 0.013
283.15 K, x1 = 1 | 950.131 ± 0.21 | 1.44273 ± 0.00036 | 1516.8 ± 1.3 | 1.168 ± 0.014
298.15 K, x1 = 0.0602 | 809.208 ± 0.2 | 1.3423 ± 0.00035 | 1154.4 ± 1.2 | 0.5868 ± 0.0069
298.15 K, x1 = 0.1088 | 824.553 ± 0.2 | 1.35319 ± 0.00035 | 1190.7 ± 1.2 | 0.6156 ± 0.0072
298.15 K, x1 = 0.2079 | 849.999 ± 0.2 | 1.37142 ± 0.00035 | 1250.8 ± 1.2 | 0.6706 ± 0.0079
298.15 K, x1 = 0.304 | 869.253 ± 0.2 | 1.38536 ± 0.00035 | 1297.1 ± 1.2 | 0.7197 ± 0.0084
298.15 K, x1 = 0.4055 | 885.574 ± 0.2 | 1.39737 ± 0.00035 | 1336 ± 1.2 | 0.764 ± 0.0089
298.15 K, x1 = 0.5011 | 897.92 ± 0.2 | 1.40652 ± 0.00035 | 1365.2 ± 1.2 | 0.8017 ± 0.0094
298.15 K, x1 = 0.6014 | 908.603 ± 0.2 | 1.41458 ± 0.00036 | 1391.2 ± 1.2 | 0.8364 ± 0.0098
298.15 K, x1 = 0.7036 | 917.769 ± 0.2 | 1.42131 ± 0.00036 | 1413.5 ± 1.3 | 0.8692 ± 0.01
298.15 K, x1 = 0.803 | 924.814 ± 0.2 | 1.42684 ± 0.00036 | 1429.2 ± 1.3 | 0.8941 ± 0.01
298.15 K, x1 = 0.9076 | 931.291 ± 0.21 | 1.43186 ± 0.00036 | 1443.4 ± 1.3 | 0.9147 ± 0.011
298.15 K, x1 = 0.9502 | 933.67 ± 0.21 | 1.43378 ± 0.00036 | 1449.2 ± 1.3 | 0.9232 ± 0.011
298.15 K, x1 = 1 | 936.289 ± 0.21 | 1.43579 ± 0.00036 | 1453.7 ± 1.3 | 0.9299 ± 0.011
313.15 K, x1 = 0.0602 | 794.82 ± 0.2 | 1.33598 ± 0.00035 | 1103.1 ± 1.2 | 0.479 ± 0.0057
313.15 K, x1 = 0.1088 | 810.116 ± 0.2 | 1.3468 ± 0.00035 | 1138.1 ± 1.2 | 0.5045 ± 0.006
313.15 K, x1 = 0.2079 | 835.563 ± 0.2 | 1.36494 ± 0.00035 | 1196.3 ± 1.2 | 0.5501 ± 0.0065
313.15 K, x1 = 0.304 | 854.874 ± 0.2 | 1.37881 ± 0.00035 | 1240.7 ± 1.2 | 0.5911 ± 0.007
313.15 K, x1 = 0.4055 | 871.236 ± 0.2 | 1.39075 ± 0.00035 | 1278.3 ± 1.2 | 0.6287 ± 0.0074
313.15 K, x1 = 0.5011 | 883.681 ± 0.2 | 1.39987 ± 0.00035 | 1306.9 ± 1.2 | 0.6592 ± 0.0078
313.15 K, x1 = 0.6014 | 894.459 ± 0.2 | 1.40791 ± 0.00036 | 1332.7 ± 1.2 | 0.689 ± 0.0081
313.15 K, x1 = 0.7036 | 903.693 ± 0.2 | 1.4146 ± 0.00036 | 1353 ± 1.2 | 0.7156 ± 0.0084
313.15 K, x1 = 0.803 | 910.885 ± 0.2 | 1.42013 ± 0.00036 | 1370.2 ± 1.3 | 0.7362 ± 0.0087
313.15 K, x1 = 0.9076 | 917.391 ± 0.21 | 1.42511 ± 0.00036 | 1383.7 ± 1.3 | 0.7539 ± 0.0089
313.15 K, x1 = 0.9502 | 919.775 ± 0.21 | 1.42701 ± 0.00036 | 1388.9 ± 1.3 | 0.7607 ± 0.009
313.15 K, x1 = 1 | 922.429 ± 0.21 | 1.42901 ± 0.00036 | 1393.3 ± 1.3 | 0.7644 ± 0.0091
